In patent US20260234107A1, “TRYPTAMINES AND METHODS OF TREATING MOOD DISORDERS” (priority 2022, published 2026):
Like-named read-outs stand apart in the source and are kept apart here.

Experiments:
5-HT1A = biological target: T1, 5-HT1A (Homo sapiens, UniProt P08908); assay: FLIPR Ca2+ flux agonist assay at 5-HT1A; assay type: cell-based; details: for 5-HT1A % Act @ Max Dose: Ca2+ flux, CHO cells
T1 construct: host or cells: CHO cells
T1 sequence (P08908 1-422): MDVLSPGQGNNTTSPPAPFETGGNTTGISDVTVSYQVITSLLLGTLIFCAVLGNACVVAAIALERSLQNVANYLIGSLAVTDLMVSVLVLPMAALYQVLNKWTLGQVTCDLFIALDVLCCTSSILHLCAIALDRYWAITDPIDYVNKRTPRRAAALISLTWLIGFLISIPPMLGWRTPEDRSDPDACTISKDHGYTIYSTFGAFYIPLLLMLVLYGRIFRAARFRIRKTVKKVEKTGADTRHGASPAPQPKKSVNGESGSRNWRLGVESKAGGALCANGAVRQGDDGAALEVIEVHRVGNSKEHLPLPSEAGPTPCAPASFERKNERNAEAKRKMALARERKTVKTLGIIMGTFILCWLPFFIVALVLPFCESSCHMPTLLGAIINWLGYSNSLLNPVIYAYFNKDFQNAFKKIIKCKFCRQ

[1] = Stability in mouse brain homogenate; assay type: in vitro ADME, male CD-1 mice; details: for half-life at 1 µM: male, CD-1
5-HT2B = biological target: T2, 5-HT2B (Homo sapiens, UniProt P41595); assay: FLIPR Ca2+ flux agonist assay at 5-HT2B; assay type: cell-based; details: for 5-HT2B % Act @ Max Dose: HEK293, max dose
T2 construct: host or cells: HEK293
T2 sequence (P41595 whole entry, species assumed): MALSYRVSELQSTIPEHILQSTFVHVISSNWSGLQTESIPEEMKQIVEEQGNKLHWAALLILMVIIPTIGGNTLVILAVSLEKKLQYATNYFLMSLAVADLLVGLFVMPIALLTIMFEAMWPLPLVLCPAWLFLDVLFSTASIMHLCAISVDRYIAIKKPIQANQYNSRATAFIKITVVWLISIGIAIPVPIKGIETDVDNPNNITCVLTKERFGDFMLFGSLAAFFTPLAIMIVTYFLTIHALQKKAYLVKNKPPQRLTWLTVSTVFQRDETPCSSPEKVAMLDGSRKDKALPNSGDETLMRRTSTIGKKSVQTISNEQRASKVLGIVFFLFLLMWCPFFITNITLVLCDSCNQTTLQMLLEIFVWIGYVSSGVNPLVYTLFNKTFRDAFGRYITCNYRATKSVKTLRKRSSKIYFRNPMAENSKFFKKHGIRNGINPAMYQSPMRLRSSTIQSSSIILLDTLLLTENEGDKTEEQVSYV

[2] = system: monoamine oxidase A and B (MAO-A and MAO-B); assay: Stability in the presence of monoamine oxidases (human liver mitochondria preparation); set-up: half-life / microsomal CLint: dose or concentration left out as unconfirmed; details: for stability in the presence of MAO (in words): human liver mitochondria preparation; for Remaining (t = 60 min) / half-life / microsomal CLint: human liver mitochondria; for half-life / microsomal CLint: human, pH 7.4; for CLint(MAO) / t1/2: human liver mitochondria 0.30 mg protein/mL, 37° C.
Description: Liver Mitochondria Incubations. Human liver mitochondria (Xenotech H0610.M) were used.

5-HT2C receptor [3] = biological target: T3, 5-HT2C receptor (Homo sapiens, UniProt P28335); assay: 5-HT2C receptor radioligand binding ([3H]mesulergine); details: for Ki: HEK293 stable cell line, 2 nM [3H]mesulergine; for binding to the 5-HT2C receptor (in words): compared with 5-HT2A receptor binding
T3 sequence (P28335 33-458): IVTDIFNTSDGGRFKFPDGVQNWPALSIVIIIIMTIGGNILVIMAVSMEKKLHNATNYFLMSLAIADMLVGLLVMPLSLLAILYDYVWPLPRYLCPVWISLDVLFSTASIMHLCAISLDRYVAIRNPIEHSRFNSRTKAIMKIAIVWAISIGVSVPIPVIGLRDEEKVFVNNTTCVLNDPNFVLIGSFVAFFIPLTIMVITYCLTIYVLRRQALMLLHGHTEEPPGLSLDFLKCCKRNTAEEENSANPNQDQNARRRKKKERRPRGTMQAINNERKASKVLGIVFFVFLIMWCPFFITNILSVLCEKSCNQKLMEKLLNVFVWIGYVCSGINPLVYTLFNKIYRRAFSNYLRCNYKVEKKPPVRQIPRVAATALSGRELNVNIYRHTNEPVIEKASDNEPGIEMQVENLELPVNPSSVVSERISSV
Description: The binding affinities of disclosed compounds at the mesulergine binding site of the 5-HT2C receptor were determined in radioligand binding experiments.
Method. Affinity of the test compounds for the 5-HT2C receptor was determined in radioligand binding experiments with [^3H]mesulergine by WuXi AppTec (Hong Kong) Limited, using methods adapted from the literature and under conditions described in Table 11.

[4] = Stability in rat brain homogenate; assay type: in vitro ADME, male Sprague Dawley rats; details: for half-life at 1 µM: male, Sprague Dawley
5-HT2A [5] = biological target: T4, 5-HT2A (Homo sapiens, UniProt P28223); assay: 5-HT2A receptor radioligand binding ([3H]ketanserin)
T4 sequence (P28223 whole entry): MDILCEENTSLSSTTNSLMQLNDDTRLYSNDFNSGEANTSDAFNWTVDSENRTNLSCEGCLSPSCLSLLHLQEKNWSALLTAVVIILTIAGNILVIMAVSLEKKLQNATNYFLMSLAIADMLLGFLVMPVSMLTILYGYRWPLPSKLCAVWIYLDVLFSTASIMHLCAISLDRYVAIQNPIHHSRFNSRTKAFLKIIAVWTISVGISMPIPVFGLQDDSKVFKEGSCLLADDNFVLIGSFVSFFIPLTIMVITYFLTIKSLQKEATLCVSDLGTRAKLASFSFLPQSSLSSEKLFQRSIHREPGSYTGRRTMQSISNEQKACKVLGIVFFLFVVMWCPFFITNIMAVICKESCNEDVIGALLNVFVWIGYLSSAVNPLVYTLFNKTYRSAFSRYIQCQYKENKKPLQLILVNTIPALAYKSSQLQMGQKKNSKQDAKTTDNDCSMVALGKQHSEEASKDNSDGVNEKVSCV
Description: The binding affinities of disclosed compounds at the ketanserin binding site of the 5-HT2A receptor were determined in radioligand binding experiments.
Method. Affinity of the test compounds for the 5-HT2A receptor was determined in radioligand binding experiments with [^3H]ketanserin by WuXi AppTec (Hong Kong) Limited, using methods adapted from the literature and under conditions described in Table 4.

[6] = Metabolic stability in human liver microsomes (HLM); set-up: microsomal CLint / half-life: dose or concentration left out as unconfirmed; details: for half-life / microsomal CLint: both, human, pooled human liver microsomes, pH 7.4
5-HT2A [7] = biological target: T4, 5-HT2A; assay: FLIPR Ca2+ flux agonist assay at 5-HT2A; assay type: cell-based; set-up: host or cells: HEK293; details: for 5-HT2A % Act @ Max Dose: HEK293, max dose
5-HT2C receptor [8] = biological target: T3, 5-HT2C receptor; assay: cell-based; assay type: cell-based; details: Ca2+ flux
rat synaptosomes = assay: Serotonin (5-HT) release from rat synaptosomes; assay type: biochemical, Male Sprague-Dawley rats; details: for EC50: rat synaptosomes preloaded with [3H]5-HT; for % Release @ Max Dose (10 μM): rat synaptosomes
Description: Disclosed compounds were assessed for their ability to release serotonin (5-HT) from […] (Table 9). Potency and efficacy for 5-HT release varied substantially depending on the specific compound. […] However, there was also substantial variability among 4-hydroxy compounds.
Synaptosome 5-HT Release Assay. Synaptosome release assays were conducted according to modifications of previously described procedures (Partilla et al. (2016). Interrogating the Activity of Ligands at Monoamine Transporters in Rat Brain Synaptosomes. In Neurotransmitter Transporters (pp. 41-52). Springer.). Briefly, synaptosomes were prepared from rat brains. Male Sprague-Dawley rats were rendered unconscious with CO2 and their brains were immediately removed. The cerebella were discarded and the whole brains (minus striatum) were placed in ice-cold 0.32 M sucrose (10 mL per brain) and gently homogenized by hand. The homogenate of each brain was centrifuged at 1,000×g at 4° C. for 10 mins and the resulting supernatant was diluted with ice-cold 0.32 M sucrose to a total volume of 10 mL to provide the synaptosome solution. Synaptosomes were then preloaded with 5 nM [^3H]5-HT in the presence of selective uptake inhibitors of DAT (50 nM GBR12935), NET (100 nM nomifensine), and VMAT2 (1 μM reserpine) in Krebs phosphate buffer (KPB). The incubations were allowed to reach equilibrium for 2 h at 25° C. For the release reactions, 425 μL of preloaded synaptosomes were added to test tubes containing 75 μL of test drugs diluted in KPB containing 1 mg/mL BSA. After 10 mins, the release reaction was stopped using a cell harvester by rapid vacuum filtration over GF/B filter paper presoaked in wash buffer (10 mM Tris-HCl, pH 7.4, 150 mM NaCl) and the filters were washed with additional wash buffer. Filters were dried for 1 h at 60° C. and retained radioactivity was quantified using a MicroBeta 2 liquid scintillation counter. The amount of retained radioactivity was inversely proportional to the extent of release.

[9] = Plasma pharmacokinetics in mice after subcutaneous administration; assay type: in vivo, male C57BL/6 mice; details: SC 10 mg/kg
Source text: Animals. […] Four mice were housed in each cage. […] All animals were provided laboratory rodent diet. […] Animals were randomly assigned to treatment groups.

[10] = mouse brain homogenate, 1 μM, 37° C.
[11] = rat brain homogenate, 1 μM, 37° C.
[12] = HEK293 stable cell line, 1 nM [3H]ketanserin, read-out: 5-HT2A Ki (nM) ([3H]Ketanserin)
[13] = mouse, plasma, male C57BL/6 mice
[14] = Ca2+ flux, HEK293, read-out: 5-HT2A EC50
[15] = HLM 0.50 mg protein/mL, NADPH, 37° C., 60 minutes

Row | Compound | EC50 (5-HT1A) [nM] | 5-HT1A % Act @ Max Dose (5-HT1A) [%] | half-life at 1 µM [1, 10] [h] | % Compound Remaining (after 120 min) [1, 10] [%] | EC50 (5-HT2B) [nM] | 5-HT2B % Act @ Max Dose (5-HT2B; Ca2+ flux) [%] | stability in the presence of MAO (in words) [2] | Remaining (t = 60 min) [2] [%] | half-life [2] [h] | microsomal CLint [2] [µL/min/mg] | Ki (5-HT2C receptor [3]) [nM] | binding to the 5-HT2C receptor (in words) (5-HT2C receptor [3]) | half-life at 1 µM [4, 11] [h] | % Compound Remaining (after 120 min) [4, 11] [%] | half-life [6] [h] | microsomal CLint [6] [µL/min/mg] | EC50 (5-HT2C receptor [8]) [nM] | 5-HT2C % Act @ Max Dose (5-HT2C receptor [8]) [%] | EC50 (rat synaptosomes) [nM] | % Release @ Max Dose (10 μM) (rat synaptosomes) [%] | further results
1 | CC(C)n1cc(CCN(C)C)c2c(O)cc(F)cc21 [Compound 10, 3-(2-(dimethylamino)ethyl)-6-fluoro-1-isopropyl-1H-indol-4-ol] | > 100000 | 1.85 | > 4.82 | 80.9 | > 10000 | 1.99 | intermediate stability | 55.7 | 1.31 | 29.4 | 10.5 | potent binding to the 5-HT2C receptor | 4.49 | 71.4 | 1.78 | 12.9 | 30.1 | 43.06 | – | – | Ki (5-HT2A [5]; [12]): 1190 nM; EC50 (5-HT2A [7]): > 1000 nM; 5-HT2A % Act @ Max Dose (5-HT2A [7]; Ca2+ flux): 1.28%; agonism at 5-HT2C (in words) (5-HT2C receptor [8]): potent partial agonism
2 | Oc1cccc2[nH]cc(CCNC3CC3)c12 [Compound 4, 3-(2-(cyclopropylamino)ethyl)-1H-indol-4-ol] | 6560 | 58.72 | 0.883 | 19.4 | – | 4.08 | intermediate stability | 72.7 | 1.91 | 20.2 | – | – | 1.05 | 25.2 | 1.36 | 17 | – | – | 1250 | 38.87 | stability in mouse brain homogenate (in words) [1]: intermediate stability; agonism at 5-HT2B (in words) (5-HT2B; Ca2+ flux): did not; stability in rat brain homogenate (in words) [4]: intermediate stability; Ki (5-HT2A [5]): 339 nM; peak plasma concentration compared with 5-F-DMT (in words) ([9]; mice): much higher peak concentrations than 5-F-DMT; AUC(0-t) [9, 13]: 665 ng·h/mL; Cmax [9, 13]: 1220 ng/mL; half-life [9, 13]: 0.62 h; Tmax ([9]; mouse, plasma, male C57BL/6 mice, read-out: Tmax): 0.25 h; EC50 (5-HT2A [7]; [14]): 8.7 nM
3 | CCN(C)CCc1c[nH]c2ccccc12 [MET, N-methyl-N-ethyltryptamine, reference compound] | 57900 | 71.4 | – | – | – | 11.9 | more stable | 84.5 | – | – | – | – | – | – | – | – | 28.3 | – | 183 | 71.00 | CLint(MAO) [2]: <15.9 µL/min/mg; t1/2 [2]: >2.42 h; Ki (5-HT2A [5]): 128 nM; EC50 (5-HT2A [7]; [14]): 17.1 nM
4 | CCN(C)CCc1c[nH]c2cccc(O)c12 [Compound 4-HO-MET, reference compound] | – | – | – | 16.7 | – | 1.1 | stable | 112.3 | – | – | – | – | – | 20.9 | – | – | 37.8 | 95.0 | 496 | 56.9 | t1/2 [1, 10]: 0.763 h; CLint(MAO) [2]: <15.9 µL/min/mg; t1/2 [2]: >2.42 h; t1/2 [4, 11]: 0.883 h; Clint [6, 15]: <9.6 µL/min/mg; t1/2 [6, 15]: >2.42 h; AUC(0-t) [9, 13]: 1410 ng·h/mL; Cmax [9, 13]: 1160 ng/mL; Tmax ([9]; plasma, male C57BL/6 mice): 0.08 h; t1/2 ([9]; plasma, male C57BL/6 mice): 1.1 h
5 | CNCCc1cn(C(C)C)c2cc(F)cc(O)c12 [Compound 12, 6-fluoro-1-isopropyl-3-(2-(methylamino)ethyl)-1H-indol-4-ol] | > 100000 | 3.96 | 4.39 | 72.3 | > 10000 | 1.74 | – | 104.0 | > 2.42 | < 15.9 | 30.8 | potent binding to the 5-HT2C receptor | 4.14 | 70.4 | > 2.42 | < 9.6 | 25.3 | 57.17 | – | – | Ki (5-HT2A [5]; [12]): > 1230 nM; EC50 (5-HT2A [7]): > 1000 nM; 5-HT2A % Act @ Max Dose (5-HT2A [7]; Ca2+ flux): 10.55%; agonism at 5-HT2C (in words) (5-HT2C receptor [8]): potent partial agonism
